Measurements reported in paper PMC3667671 (Clinical pharmacology and therapeutics, 2012).
Values joined by “and” are separate entries in the source; they are usually repeats but may differ in a detail not shown here. Equal values may be shown once. Read-outs that look alike come from different tables or passages of the source. Each block holds one molecule with its values, some of them ahead of it.

Columns and labels:
[1] = type: in vivo, human; settings: for CLR (renal clearance) / AUC0–6 h / AUC0–24 h / Cmax / AUC(0-t): mean ± SD; for AUC0–6 h / AUC0–24 h / Cmax / AUC(0-t): serum
serum sterols = assay: Serum sterol concentrations; type: in vivo, human
[2] = Estimated luminal concentration of efavirenz after oral administration; set-up: species or system human; settings: after oral administration of 400 mg, dose/250 mL
ABCC2 = ABCC2 (Homo sapiens, UniProt Q92887); assay: Uptake of estradiol-17β-glucuronide into ABCC2-containing inside-out vesicles; type: biochemical
Chain of ABCC2 (Q92887 whole entry): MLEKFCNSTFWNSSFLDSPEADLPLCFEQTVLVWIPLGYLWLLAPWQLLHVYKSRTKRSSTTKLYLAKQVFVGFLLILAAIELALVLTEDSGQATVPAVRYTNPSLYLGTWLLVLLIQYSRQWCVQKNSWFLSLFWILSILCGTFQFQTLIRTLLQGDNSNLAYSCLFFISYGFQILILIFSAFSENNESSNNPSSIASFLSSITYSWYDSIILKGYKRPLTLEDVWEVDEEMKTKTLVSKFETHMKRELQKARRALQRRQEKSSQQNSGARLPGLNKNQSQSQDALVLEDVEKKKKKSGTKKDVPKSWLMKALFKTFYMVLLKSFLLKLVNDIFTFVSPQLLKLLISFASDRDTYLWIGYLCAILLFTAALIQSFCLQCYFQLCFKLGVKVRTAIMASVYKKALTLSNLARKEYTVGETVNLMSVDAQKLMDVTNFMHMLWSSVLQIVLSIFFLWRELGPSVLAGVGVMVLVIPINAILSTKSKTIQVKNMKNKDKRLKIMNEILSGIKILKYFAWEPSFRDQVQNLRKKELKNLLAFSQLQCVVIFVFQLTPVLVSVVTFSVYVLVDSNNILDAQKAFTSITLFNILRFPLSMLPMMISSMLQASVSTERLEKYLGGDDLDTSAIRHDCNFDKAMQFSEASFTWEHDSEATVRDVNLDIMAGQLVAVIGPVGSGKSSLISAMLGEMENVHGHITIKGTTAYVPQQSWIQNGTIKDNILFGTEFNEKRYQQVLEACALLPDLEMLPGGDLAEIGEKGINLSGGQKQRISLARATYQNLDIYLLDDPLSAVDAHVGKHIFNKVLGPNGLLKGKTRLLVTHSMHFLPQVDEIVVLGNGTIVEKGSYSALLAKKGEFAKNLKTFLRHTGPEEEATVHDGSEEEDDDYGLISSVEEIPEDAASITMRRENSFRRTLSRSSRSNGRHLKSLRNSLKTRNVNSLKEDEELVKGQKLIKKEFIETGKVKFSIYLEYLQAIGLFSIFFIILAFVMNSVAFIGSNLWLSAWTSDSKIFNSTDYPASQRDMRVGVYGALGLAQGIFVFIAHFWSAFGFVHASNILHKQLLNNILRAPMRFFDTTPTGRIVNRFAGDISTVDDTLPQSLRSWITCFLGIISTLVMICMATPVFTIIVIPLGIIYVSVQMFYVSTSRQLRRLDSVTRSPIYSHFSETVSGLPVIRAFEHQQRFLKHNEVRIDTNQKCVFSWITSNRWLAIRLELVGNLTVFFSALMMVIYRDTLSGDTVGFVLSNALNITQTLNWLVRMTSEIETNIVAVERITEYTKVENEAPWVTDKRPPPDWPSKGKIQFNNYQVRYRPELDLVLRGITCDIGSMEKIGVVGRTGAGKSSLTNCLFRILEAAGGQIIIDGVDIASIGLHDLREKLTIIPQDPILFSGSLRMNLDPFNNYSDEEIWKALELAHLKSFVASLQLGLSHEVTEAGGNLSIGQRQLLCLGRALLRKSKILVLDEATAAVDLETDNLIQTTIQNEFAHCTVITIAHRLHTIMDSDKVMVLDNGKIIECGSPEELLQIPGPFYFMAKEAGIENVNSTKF

serum cholesterol = settings: human, in vivo; cited from earlier work
ABCB1 = ABCB1 (Homo sapiens, UniProt P08183); assay: Calcein AM accumulation assay in ABCB1-transfected MDCKII cells; type: cell-based
Chain of ABCB1 (P08183 whole entry): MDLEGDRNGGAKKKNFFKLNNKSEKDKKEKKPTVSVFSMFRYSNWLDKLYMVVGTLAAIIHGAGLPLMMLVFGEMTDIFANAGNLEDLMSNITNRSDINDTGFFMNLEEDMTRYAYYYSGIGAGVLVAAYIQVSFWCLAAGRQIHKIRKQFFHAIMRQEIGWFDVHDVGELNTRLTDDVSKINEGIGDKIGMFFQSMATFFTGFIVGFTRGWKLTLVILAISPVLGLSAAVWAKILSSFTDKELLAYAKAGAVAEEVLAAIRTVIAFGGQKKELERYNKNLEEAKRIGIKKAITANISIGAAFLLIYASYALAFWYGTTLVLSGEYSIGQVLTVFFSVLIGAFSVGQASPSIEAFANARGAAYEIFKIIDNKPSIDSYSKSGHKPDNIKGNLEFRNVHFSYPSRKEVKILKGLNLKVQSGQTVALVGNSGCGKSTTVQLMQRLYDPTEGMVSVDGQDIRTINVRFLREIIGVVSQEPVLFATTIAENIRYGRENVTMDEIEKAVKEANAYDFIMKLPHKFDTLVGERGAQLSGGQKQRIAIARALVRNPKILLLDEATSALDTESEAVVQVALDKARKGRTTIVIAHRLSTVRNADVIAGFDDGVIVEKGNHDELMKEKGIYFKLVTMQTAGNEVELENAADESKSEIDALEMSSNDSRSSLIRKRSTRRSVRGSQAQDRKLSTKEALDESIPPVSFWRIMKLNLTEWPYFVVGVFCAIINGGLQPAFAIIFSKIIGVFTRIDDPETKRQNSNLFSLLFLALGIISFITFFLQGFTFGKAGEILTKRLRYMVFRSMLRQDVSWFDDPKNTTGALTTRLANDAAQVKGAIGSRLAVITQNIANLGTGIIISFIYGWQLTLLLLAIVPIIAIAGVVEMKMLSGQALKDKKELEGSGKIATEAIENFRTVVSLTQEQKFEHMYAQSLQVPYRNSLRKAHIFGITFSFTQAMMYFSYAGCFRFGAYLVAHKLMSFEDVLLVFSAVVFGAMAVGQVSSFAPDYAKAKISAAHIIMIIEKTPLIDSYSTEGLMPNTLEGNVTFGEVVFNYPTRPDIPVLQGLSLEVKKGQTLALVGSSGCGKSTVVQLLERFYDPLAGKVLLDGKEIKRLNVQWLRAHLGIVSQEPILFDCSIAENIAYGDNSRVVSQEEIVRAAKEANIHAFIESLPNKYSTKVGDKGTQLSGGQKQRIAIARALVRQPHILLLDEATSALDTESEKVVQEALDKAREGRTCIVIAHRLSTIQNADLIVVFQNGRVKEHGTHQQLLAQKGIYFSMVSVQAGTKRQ

[3] = type: in vivo, human
[4] = rapidly absorbed from the upper intestine; cited from earlier work
OATP1B1 = biological target: T1, OATP1B1 (Homo sapiens, UniProt Q9Y6L6); type: cell-based; settings: OATP1B1-transfected HEK293 cells, efavirenz 1–1,000 μmol/l
T1 sequence (Q9Y6L6 1-691): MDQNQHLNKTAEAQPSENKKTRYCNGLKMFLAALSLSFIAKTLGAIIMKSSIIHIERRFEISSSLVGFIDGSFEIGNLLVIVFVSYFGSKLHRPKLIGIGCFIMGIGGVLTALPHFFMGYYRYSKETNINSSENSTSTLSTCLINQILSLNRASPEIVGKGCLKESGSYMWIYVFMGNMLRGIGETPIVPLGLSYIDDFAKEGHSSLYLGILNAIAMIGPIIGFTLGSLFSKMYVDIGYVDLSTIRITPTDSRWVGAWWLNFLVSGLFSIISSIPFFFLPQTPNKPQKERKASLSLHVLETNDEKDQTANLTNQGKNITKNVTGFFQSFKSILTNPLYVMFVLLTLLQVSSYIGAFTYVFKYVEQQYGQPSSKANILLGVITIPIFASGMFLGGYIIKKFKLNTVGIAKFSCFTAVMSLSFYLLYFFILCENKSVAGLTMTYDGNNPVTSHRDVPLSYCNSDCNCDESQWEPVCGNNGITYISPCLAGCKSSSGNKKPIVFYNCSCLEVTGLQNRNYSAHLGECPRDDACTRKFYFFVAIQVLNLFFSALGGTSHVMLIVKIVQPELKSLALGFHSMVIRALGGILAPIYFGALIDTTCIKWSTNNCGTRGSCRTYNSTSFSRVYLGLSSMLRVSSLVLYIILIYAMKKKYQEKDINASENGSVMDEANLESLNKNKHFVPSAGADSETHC

[5] = ezetimibe + efavirenz multiple dose vs ezetimibe alone
[6] = ezetimibe + efavirenz single dose vs ezetimibe alone
[7] = steady state 10 mg ezetimibe + 400 mg efavirenz multiple dose
[8] = steady state 10 mg ezetimibe + 400 mg efavirenz single dose
[9] = steady state, 10 mg ezetimibe alone
[10] = chronic administration of 10 mg ezetimibe, 12 healthy subjects
[11] = 400 mg efavirenz single dose, second value of the pair (taken as with ezetimibe)

- CLR (renal clearance) ([1]; 10 mg ezetimibe + 400 mg efavirenz multiple dose): 21.7 ± 5.91 mL/min
- CLR (renal clearance) ([1]; 10 mg ezetimibe + 400 mg efavirenz single dose): 23.3 ± 7.61 mL/min
- CLR (renal clearance) ([1]; 10 mg ezetimibe alone, steady state): 24.7 ± 8.77 mL/min
- decrease of exposure ([1]; acute and chronic comedication with efavirenz): 12–30%
- AUC0–6 h Ratio (90% CI) [1, 5]: 0.691 (0.592, 0.806)
- AUC0–24 h Ratio (90% CI) [1, 5]: 0.700 (0.608, 0.806)
- Cmax Ratio (90% CI) [1, 5]: 0.606 (0.469, 0.783)
- AUC0–6 h Ratio (90% CI) [1, 6]: 0.872 (0.774, 0.982)
- AUC0–24 h Ratio (90% CI) [1, 6]: 0.885 (0.809, 0.968)
- Cmax Ratio (90% CI) [1, 6]: 0.776 (0.625, 0.963)
- reduction of urinary excretion ([1]; multiple doses of efavirenz, unchanged renal clearance, P = 0.003): 35%
- diminished serum AUC ([1]; pretreatment with multiple doses of efavirenz, P = 0.005): ~30%
- diminished serum Cmax ([1]; pretreatment with multiple doses of efavirenz, P = 0.012): about 43%
- AUC0–6 h [1, 7]: 141 ± 58 ng·h/mL
- AUC0–24 h [1, 7]: 325 ± 152 ng·h/mL
- Cmax [1, 7]: 45.3 ± 14.6 ng/mL
- AUC0–6 h [1, 8]: 182 ± 87 ng·h/mL
- AUC0–24 h [1, 8]: 411 ± 195 ng·h/mL
- Cmax [1, 8]: 60.9 ± 29.5 ng/mL
- AUC0–24 h ([1]; steady state, 10 mg ezetimibe alone, 12 healthy subjects): 466 ± 223 ng·h/mL
- AUC0–6 h [1, 9]: 205 ± 90 ng·h/mL
- Cmax [1, 9]: 78.9 ± 43.1 ng/mL
SMILES: O=C(O)[C@H]1O[C@@H](Oc2ccc([C@@H]3[C@@H](CC[C@H](O)c4ccc(F)cc4)C(=O)N3c3ccc(F)cc3)cc2)[C@H](O)[C@@H](O)[C@@H]1O [Ezetimibe-glucuronide, ezetimibe-glucuronide]

- AUC0–6 h Ratio (90% CI) [1, 5]: 1.052 (0.880, 1.256)
- AUC0–24 h Ratio (90% CI) [1, 5]: 0.975 (0.850, 1.118)
- Cmax Ratio (90% CI) [1, 5]: 0.951 (0.730, 1.240)
- AUC0–6 h Ratio (90% CI) [1, 6]: 1.346 (1.201, 1.508)
- AUC0–24 h Ratio (90% CI) [1, 6]: 1.146 (1.034, 1.270)
- Cmax Ratio (90% CI) [1, 6]: 1.194 (1.031, 1.382)
- AUC(0-t) ([1]; human, oral, 10 mg, AUC0–6 h, steady state, 10 mg ezetimibe alone): 13.6 ± 5.5 ng·h/mL
- AUC(0-t) ([1]; human, oral, 10 mg, AUC0–24 h, steady state, 10 mg ezetimibe alone, 12 healthy subjects): 51.9 ± 21.7 ng·h/mL
- Cmax ([1]; human, oral, 10 mg, Cmax, steady state, 10 mg ezetimibe alone): 4.82 ± 2.74 ng/mL
- higher AUC0–6 h ([1]; with single-dose efavirenz vs ezetimibe alone, P = 0.005): 1.4 fold
- higher maximum plasma concentration (Cmax) ([1]; with single-dose efavirenz vs ezetimibe alone, P = 0.049): 1.2 fold
SMILES: O=C1[C@H](CC[C@H](O)c2ccc(F)cc2)[C@@H](c2ccc(O)cc2)N1c1ccc(F)cc1 [Ezetimibe, ezetimibe]
- lathosterol/cholesterol ratio (marker for endogenous cholesterol synthesis) (serum sterols; after treatment with ezetimibe): significantly increased
- reduction of serum concentration of campesterol (serum sterols; [10]): ~ 40%
- reduction of serum concentration of sitosterol (serum sterols; [10]): ~ 40%
- reduction of total serum cholesterol (serum sterols; [10]): 10–15%

- estimated luminal concentration [2]: ~ 5 mmol/l and 5 mmol/l
- IC50 (ABCC2): 60.3 µM
- concentration inhibiting ABCB1 activity to the same extent as PSC833 (10 μmol/l) (ABCB1): 316 µM
- cumulative renal excretion ([3]; 400 mg efavirenz single dose, first value of the pair (taken as alone)): 83.4 ± 26.9 µg
- cumulative renal excretion [3, 11]: 88.4 ± 18.8 µg
- renal clearance [3, 11]: 0.06 ± 0.03 mL/min
- AUC(0-inf) ([3]; human, serum, oral, 400 mg): 27000 ± 12200 ng·h/mL
- CL renal ([3]; human, urine and plasma, oral, 400 mg): 0.06 ± 0.03 mL/min
- influence on OATP1B1-mediated uptake of bromosulfophthalein (OATP1B1): no influence
SMILES: O=C1Nc2ccc(Cl)cc2[C@@](C#CC2CC2)(C(F)(F)F)O1 [Efavirenz, efavirenz]
- HIV-infected patients with increased serum cholesterol levels (serum cholesterol): ~50%
- Tmax [4]: 2 to 3 h
